Data as given in PubChem BioAssay (NCI).
Values joined by “and” are separate entries in the source; they are usually repeats but may differ in a detail not shown here. Equal entries are not always repeated.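 Method: 48-hour compound exposure of cells in 96-well plates, five concentrations, linear interpolation of endpoints. GI50 is the concentration that inhibits growth by half. Definition used: TGI = concentration required for complete inhibition of growth.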

Legend:
Assay in all cases: inhibition of tumour cell growth, NCI panel, 48 h
[1] = system: SW-620 colon
[2] = system: HL-60(TB) leukemia
[3] = system: UACC-257 melanoma
[4] = system: SNB-78 CNS
[5] = system: OVCAR-4 ovarian
[6] = system: DMS 114 small cell lung
[7] = system: COLO 205 colon
[8] = system: A498 renal
[9] = system: MDA-MB-435
[10] = system: NCI/ADR-RES ovarian

Row | Compound | TGI [1] | TGI [2] | TGI [3] | TGI [4] | TGI [5] | TGI [6] [µM] | TGI [7] | TGI [8] | TGI [9] [µM] | GI50 [1] [µM] | GI50 [2] [µM] | GI50 [3] [µM] | GI50 [4] [µM] | GI50 [5] [µM] | TGI [10] [µM] | GI50 [7] [µM] | GI50 [8] [µM]
1 | COC(=O)C1(C(C)C)CCc2c(OC)ccc(OC)c2C1=O (stereo unspecified) | > 100 µM | > 100 µM | > 100 µM | > 100 µM | > 100 µM | > 100 | > 100 µM | > 100 µM |  |  |  |  |  |  |  |  | 
2 | O=C(Nc1ccccc1)c1c(O)[nH]c(=S)[nH]c1=O | 97.7 µM and > 250 µM | 67.3 µM and > 250 µM | 112 µM and > 250 µM | 124 µM and > 250 µM | 103 µM and > 250 µM | 69 | 64.1 µM and 105 µM | 106 µM and > 250 µM | 46.8 | 74.4 | 80.4 | 83.1 | 97.7 | 87.2 | 83.8 | 39.3 | 65.2
3 | O=C(CC(=O)c1cccc2ccccc12)C(=O)Nc1ccc(Cl)cc1 | > 100 µM | > 100 µM | > 100 µM | > 100 µM | > 100 µM | > 100 | > 100 µM | > 100 µM |  |  |  |  |  |  |  |  | 
4 | COc1cc2cc(OC)c3cc4c(cc3c2c(OC)c1OC)OCO4 | 43.8 µM | 45.7 µM | > 100 µM | > 100 µM | > 100 µM | > 100 | 44.4 µM | 97.5 µM |  |  |  |  |  |  |  |  | 
5 | Cc1cnc(NCCCN(C)C)c2c1[nH]c1ccc3cc(O)ccc3c12 | 1.97 µM | 8.37 µM | 11.5 µM | 3.86 µM | 1.19 µM | 0.993 | 1.57 µM | 3.71 µM | 2.3 |  |  |  |  |  | 20.1 |  | 
6 | CCn1c(C)nn2c(=O)c3ccccc3nc2c1=O | > 100 µM | > 100 µM | > 100 µM | > 100 µM | > 100 µM | > 100 | > 100 µM | > 100 µM |  |  |  |  |  |  |  |  | 
7 | CCCC1C(=O)CCc2c(OC)ccc(OC)c21 (stereo unspecified) | > 100 µM | > 100 µM | > 100 µM | > 100 µM | > 100 µM | > 100 | > 100 µM | > 100 µM |  |  |  |  |  |  |  |  | 
8 | COC(=O)/C(C#N)=C1\NC(=O)c2ccccc21 | > 100 µM | > 100 µM | > 100 µM | > 100 µM | > 100 µM | > 100 | > 100 µM | > 100 µM |  |  |  |  |  |  |  |  | 
9 | Cc1cc(NS(=O)(=O)c2ccc(Nc3c4ccccc4nc4c(C(=O)N5CCN(CCOS(C)(=O)=O)CC5)cccc34)cc2)no1 |  | > 100 µM | > 100 µM | > 100 µM | > 100 µM | > 100 | > 100 µM | > 100 µM |  |  |  |  |  |  |  |  | 
10 | COc1cc2ccnc([C@@H](OC(=O)c3ccccc3)c3ccc(OC)c(OC)c3OC)c2cc1OC | > 100 µM | > 100 µM | > 100 µM | > 100 µM | > 100 µM | > 100 | > 100 µM | > 100 µM |  |  |  |  |  |  |  |  | 
11 | Cc1cc(N(CCC#N)CCC#N)ccc1N=Nc1ccc(S(N)(=O)=O)cc1 | > 100 µM | > 100 µM | > 100 µM | > 100 µM | > 100 µM | > 100 | > 100 µM | > 100 µM |  |  |  |  |  |  |  |  | 
12 | CCCCCCCCCCCC(=O)OCCOCCOCCOCCOCCOCc1ccccc1 | > 100 µM | > 100 µM | > 100 µM | > 100 µM | > 100 µM | > 100 | > 100 µM | > 100 µM |  |  |  |  |  |  |  |  | 
13 | O=C(CCc1nc(=S)[nH][nH]1)Nc1cc(Cl)c(Cl)cc1Cl | > 100 µM | > 100 µM | > 100 µM | > 100 µM | > 100 µM | > 100 | > 100 µM | > 100 µM |  |  |  |  |  |  |  |  | 
14 | Cc1c(C(=O)CC(=O)C(=O)Nc2ccccc2C(F)(F)F)[n+](=O)c2ccccc2n1[O-] | 47 µM | 66.2 µM | 36.2 µM | > 100 µM | 42 µM | 25.2 | 32.2 µM | > 100 µM |  |  |  |  |  |  |  |  | 
15 | COc1ccccc1N1C(=O)C2c3[nH]c4ccccc4c3C3CCC(C(C)(C)C)CC3C2C1=O (stereo unspecified) | > 100 µM | > 100 µM | > 100 µM | > 100 µM | > 100 µM | > 100 | > 100 µM | > 100 µM |  |  |  |  |  |  |  |  | 
16 | NC1=NCCC1(c1ccccc1)c1ccccn1 (stereo unspecified) | > 100 µM | > 100 µM | > 100 µM | > 100 µM | > 100 µM | > 100 | > 100 µM | > 100 µM |  |  |  |  |  |  |  |  | 
17 | CN(C)N=Nc1ccc(C(N)=O)cc1 | > 100 µM | > 100 µM | > 100 µM | > 100 µM | > 100 µM | > 100 | > 100 µM | > 100 µM |  |  |  |  |  |  |  |  | 
